Literature values, collected in patent US6462226B1, “Process for the preparation of 4,5-diamino shikimic acid derivatives” (priority 1999, dated 2002).

Tested on: viral neuraminidase
Conditions: J. C. Rohloff et al., J.Org.Chem. 63, 1998, 4545-4550; WO 98/07685

## CCOC(=O)C1=C[C@@H](OC(CC)CC)[C@H](NC(C)=O)[C@@H](N)C1 [Example 1, Ethyl (3R, 4R, 5S)-4-acetamido-5-amino-3-(1-ethylpropoxy)-1-cyclohexene-1-carboxylate]
  inhibition of viral neuraminidase: potent inhibitors
